Data published in patent publication US12410153B2, “Compounds, compositions and methods” (Avalo Therapeutics, Inc., priority 2014, dated 2025).
Read-outs that look alike come from different tables or passages of the source.

Legend:
[1] = Acute depression model, forced swim test; assay type: in vivo, rat; conditions: male, Sprague-Dawley, rat, plasma, read-out: plasma level at time of sampling
Procedure: (§1) Young, adult, male Sprague-Dawley rats were randomly assigned across the treatment groups and were administered vehicle (0.5% MC/0.02% SLS), the reference compound desipramine (20 mg/kg; a tricyclic antidepressant; Sigma, Lot #078K1326) dissolved in sterile water, or crystalline Form II of Compound (I) (0.1, 0.3, 1, 3, 10, and 30 mg/kg) suspended in 0.5% MC/0.02% SLS, twice on Day 1 (after habituation; ˜24 h prior to test, and prior to dark cycle) and once on Day 2 (30 min pre-test for desipramine and 45 min pre-test for Form II and vehicle).
(§2) Each Forced Swim chamber was constructed of clear acrylic (height, 40 cm; diameter, 20.3 cm). Rats were subjected to a pre-dose swim test of one 15-min session in cylinders containing water at 23° C.±1° C., followed approximately 24 h later by the experimental 5-min session. The water level was 16 cm deep during habituation and 30 cm deep during the test. Immobility, climbing, and swimming behaviors were recorded every 5 s for a total of 60 counts per subject. When an animal was unable to maintain a posture with its nose above water, it was immediately removed from the water and eliminated from the study. Blood was collected at the completion of swim test procedures and plasma was analyzed for Form II concentrations.

[2] = tested on: Sprague-Dawley rats; experiment: Acute depression model, forced swim test; assay type: in vivo, rat; conditions: for RO: corresponding to plasma level; for ED50: Rattus norvegicus
Procedure: as §1, §2

[3] = Single-dose pharmacokinetics in rats (oral and IV); assay type: in vivo; conditions: male, Sprague-Dawley, rat, plasma
Procedure: Male Sprague-Dawley rats (N=8; N=4 oral and N=4 intravenous [IV]) weighing approximately 250-280 g and male rhesus monkeys (N=4, crossover) weighing 6.0-8.8 kg were used for the PK studies. In rats, the IV dose of crystalline Form II of Compound (I) at 2 mg/kg (0.4 mL/kg) was administered as a bolus and the oral dose was administered by gavage at 15 mg/kg (5 mL/kg). In monkeys, the IV dose of Form II at 2 mg/kg (0.1 mL/kg) was administered as a slow bolus and the oral dose was administered via nasogastric tube at 15 mg/kg (5 mL/kg). Blood samples were serially collected pre-dose, and at 0.083 (IV only), 0.25, 0.50, 1, 2, 4, 6, 8, 10, 24, 48, 72, and 96 h post-dose. The concentrations of Form II in rat and monkey plasma were determined by LC/MS/MS analysis in the positive ion mode using a heated nebulizer interface. The lower limit of quantitation was 2.5 ng/mL (approximately 0.00697 μM).

[4] = tested on: dogs; experiment: Respiratory effects in anesthetized dogs, 5-min IV infusion; assay type: in vivo, dog; conditions: 3 mg/kg, monitored 60 min
Procedure: (§3) Respiratory effects were investigated in rats and dogs. […] Mean Form II plasma concentration was approximately 30 μM (10600 ng/mL) at the end of infusion and approximately 4 μM (1250 ng/mL) at 60 min post-infusion.

[5] = as above; assay type: in vivo, dog; conditions: dog, plasma, 3 mg/kg
Procedure: as §3

[6] = target: T1, NMDA-GluN2B receptors, rat whole brain homogenate (Rattus norvegicus, UniProt P35439+Q00960); experiment: Radioligand binding, rat whole brain homogenate; conditions: geometric mean
T1 construct: performed using whole brain homogenate (rat); from tissue; host or cells: rat whole brain homogenate
T1 sequence (Q00960 27-1482, other chains not shown): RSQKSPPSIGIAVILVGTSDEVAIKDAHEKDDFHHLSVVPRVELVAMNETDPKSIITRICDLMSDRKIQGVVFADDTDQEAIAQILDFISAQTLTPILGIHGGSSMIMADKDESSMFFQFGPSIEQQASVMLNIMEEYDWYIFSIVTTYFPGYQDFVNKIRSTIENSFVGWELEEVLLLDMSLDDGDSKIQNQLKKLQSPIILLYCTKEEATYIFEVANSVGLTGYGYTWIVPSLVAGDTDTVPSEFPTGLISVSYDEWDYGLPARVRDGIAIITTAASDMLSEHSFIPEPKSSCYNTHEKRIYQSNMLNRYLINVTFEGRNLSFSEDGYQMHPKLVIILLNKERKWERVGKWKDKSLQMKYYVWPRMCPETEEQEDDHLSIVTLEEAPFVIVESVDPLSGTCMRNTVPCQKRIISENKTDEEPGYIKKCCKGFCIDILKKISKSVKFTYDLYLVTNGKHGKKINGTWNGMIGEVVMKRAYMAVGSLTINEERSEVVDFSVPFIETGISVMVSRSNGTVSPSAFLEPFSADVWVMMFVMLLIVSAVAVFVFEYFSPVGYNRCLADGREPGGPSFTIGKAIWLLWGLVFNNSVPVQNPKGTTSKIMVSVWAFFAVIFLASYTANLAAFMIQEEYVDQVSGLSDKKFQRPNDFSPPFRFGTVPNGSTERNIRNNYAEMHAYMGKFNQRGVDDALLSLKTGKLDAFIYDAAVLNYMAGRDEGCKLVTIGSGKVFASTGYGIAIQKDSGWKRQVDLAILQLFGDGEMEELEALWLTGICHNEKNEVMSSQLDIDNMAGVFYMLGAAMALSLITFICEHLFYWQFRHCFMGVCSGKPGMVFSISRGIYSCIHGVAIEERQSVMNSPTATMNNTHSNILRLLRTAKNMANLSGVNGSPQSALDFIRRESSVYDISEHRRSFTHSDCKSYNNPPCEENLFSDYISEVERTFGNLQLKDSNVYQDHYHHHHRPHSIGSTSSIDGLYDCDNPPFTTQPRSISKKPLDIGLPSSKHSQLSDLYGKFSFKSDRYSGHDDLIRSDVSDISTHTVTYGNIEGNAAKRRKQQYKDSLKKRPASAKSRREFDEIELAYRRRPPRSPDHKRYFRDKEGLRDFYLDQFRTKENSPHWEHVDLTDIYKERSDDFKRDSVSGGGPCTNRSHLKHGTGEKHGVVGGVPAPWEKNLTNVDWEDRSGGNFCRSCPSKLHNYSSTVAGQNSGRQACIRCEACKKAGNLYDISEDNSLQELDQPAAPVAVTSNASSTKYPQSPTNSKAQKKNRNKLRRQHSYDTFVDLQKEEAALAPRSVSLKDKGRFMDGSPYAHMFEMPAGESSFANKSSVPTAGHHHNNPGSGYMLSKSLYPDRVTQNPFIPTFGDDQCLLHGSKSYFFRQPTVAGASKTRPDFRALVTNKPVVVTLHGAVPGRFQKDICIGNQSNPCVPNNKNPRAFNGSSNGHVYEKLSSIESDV
Procedure: Radioligand binding assays were performed at room temperature (or 37° C.) in 96-well microtiter plates with a final assay volume of […] in 20 mM HEPES buffer (pH 7.4) containing 150 mM NaCl. […] Nonspecific binding was assessed using N-(3-chlorobenzyl)-4-iodobenzimidamide (final concentration, 10 μM), and total binding was measured by addition of DMSO (final concentration, 2%). L(tk−) cell membranes expressing human GluN1a/GluN2B receptors (final concentration, 40 pM) and [^3H]-[(E)-N1-(2-methoxybenzyl)-cinnamamidine] (final concentration, 1 nM) were added to all wells of the microtiter plate. After 3 h (24 h or 48 h) of incubation at room temperature (or 37° C.), samples were filtered through Packard GF/B filters (presoaked in 0.05% polyethylenimine [PEI; Sigma P-3143]) and washed 10 times with 1 mL of cold 20 mM HEPES buffer per wash. After vacuum drying of the filter plates, 50 μL of Packard Microscint-20 was added and the bound radioactivity determined in a Packard TopCount.
Analogous binding experiments, to those described above for the cloned human receptor expressed in L(tk−) cells, were also performed using whole brain homogenate (rat), frontal cortex homogenate (dog and rhesus monkey), and temporal cortex homogenate (human).

[7] = tested on: Sprague-Dawley rats; experiment: Locomotor assay; assay type: in vivo, rat
Procedure: To confirm that the effect of Form II in the forced swim test was not due to a general increase in activity levels, rats were subjected to a locomotor assay following oral Form II administration. Adult male Sprague-Dawley rats (N=42) were randomly assigned across the treatment groups (vehicle or Compound (I) at 0.1, 0.3, 1, 3, 10, and 30 mg/kg; N=6/group). Locomotor activity was assessed during the light cycle in photocell-monitored cages (Hamilton Kinder, San Diego, CA). Each cage consisted of a standard plastic rat cage (24×45.5 cm) surrounded by a stainless steel frame. Infrared photocell beams were located across the long axis of the frame to measure the ambulatory distance traveled. A second set of beams was placed above the floor and was used to measure rearing activity. Photocell beam interruptions were recorded by a computer system. Filter tops were placed on top of the test enclosures during testing. Rats were administered either vehicle or test compound via oral gavage twice on Day 1 (approximately 24 h before the test and prior to dark cycle) and once on Day 2 (45 min prior to placing in the locomotor cages for a 60-min test). Locomotor activity was captured in 5-min bins.

Cc1ccc(COC(=O)N2CC[C@H](CNc3ncccn3)[C@H](F)C2)cc1 [Form II, 4-methylbenzyl (3S, 4R)-3-fluoro-4-[(pyrimidin-2-ylamino)methyl] piperidine-1-carboxylate]
concentration at 50 min ([1]; 0.1 mg/kg): ~0.015 µM
concentration at 50 min ([1]; 0.3 mg/kg): ~0.12 µM
concentration at 50 min ([1]; 1 mg/kg): ~0.39 µM
concentration at 50 min ([1]; 3 mg/kg): ~1.42 µM
concentration at 50 min ([1]; 10 mg/kg): ~4.7 µM
concentration at 50 min ([1]; 30 mg/kg): ~14.1 µM
RO ([2]; 0.1 mg/kg): approximately 5%
RO ([2]; 0.3 mg/kg): ~29%
RO ([2]; 1 mg/kg): ~56%
RO ([2]; 3 mg/kg): ~83%
RO ([2]; 10 mg/kg): ~94%
RO ([2]; 30 mg/kg): ~98%
climbing behavior ([2]; 1, 3, 10, and 30 mg/kg vs vehicle): did not affect climbing behavior except at the dose of 3 mg/kg
immobility frequency ([2]; 1, 3, 10, and 30 mg/kg vs vehicle, P<0.001): significantly decreased
swimming behavior ([2]; 1, 3, 10, and 30 mg/kg vs vehicle, P<0.01 (P<0.05 for 10 mg/kg)): significantly increased
ED50 ([2]; read-out: ED50 for decrease in immobility): ~0.7 mg/kg
ED50 ([2]; read-out: ED50 for increase in frequency of swimming): ~0.3 mg/kg
RO corresponding to ED50 for immobility ([2]; rat, in vivo): ~50%
RO corresponding to ED50 for swimming ([2]; rat, in vivo): ~30%
bioavailability ([3]; 15 mg/kg, dose-normalized AUC0-∞ after IV and PO, non-crossover): 60%
AUC(0-inf) ([3]; IV 2 mg/kg, mean (S.D.)): 3.31 µM·h
half-life ([3]; IV 2 mg/kg, mean (S.D.)): 1.7 h
clearance ([3]; IV 2 mg/kg, mean (S.D.), read-out: CLp): 28.4 mL/min/kg
Vd ([3]; IV 2 mg/kg, mean (S.D.), read-out: Vdss): 3.1 L/kg
AUC(0-inf) ([3]; PO 15 mg/kg, mean (S.D.)): 14.9 µM·h
Cmax ([3]; PO 15 mg/kg, mean (S.D.)): 5.9 µM
respiratory parameters and blood pH, pCO2, pO2 [4]: did not affect
concentration at 60 min ([5]; read-out: mean plasma concentration at 60 min post-infusion): ~4 µM
concentration at 5 min ([5]; read-out: mean plasma concentration at the end of infusion): ~30 µM
Ki ([6]; 37° C.): 14 nM
Ki ([6]; room temp.): 3.3 nM
locomotor effects ([7]; 0.1 and 0.3 mg/kg dose groups): No locomotor effects
ED50 ([7]; Rattus norvegicus, read-out: ED50 for increase in locomotor activity): ~2 mg/kg
distance traveled ([7]; first 5 min of testing, 1, 3, 10, and 30 mg/kg vs vehicle): significantly increased
RO corresponding to locomotor ED50 ([7]; rat, in vivo): ~75%
total distance traveled ([7]; summed over 60-min test, 1, 3, 10, and 30 mg/kg vs vehicle): significantly increased
